Assay results reported in PubChem BioAssay (NCI).
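Growth conditions: 96-well plates. Treatment: test compound, 48 hours, 5 concentrations. Analysis: linear interpolation between bracketing concentrations; unreached endpoints set to highest concentration. GI50 = concentration required for 50% inhibition of growth. Definition used: TGI = concentration required for complete inhibition of growth.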

Columns and labels:
Assay in all cases: NCI tumour cell line growth inhibition, 48 h
786-0 renal = test system: 786-0 renal
A498 renal = test system: A498 renal
A549 NSCLC = test system: A549 NSCLC
ACHN renal = test system: ACHN renal
BT-549 breast = test system: BT-549 breast
CAKI-1 renal = test system: CAKI-1 renal
CCRF-CEM leukemia = test system: CCRF-CEM leukemia
COLO 205 colon = test system: COLO 205 colon
DU-145 prostate = test system: DU-145 prostate
EKVX NSCLC = test system: EKVX NSCLC
HCC-2998 colon = test system: HCC-2998 colon
HCT-116 colon = test system: HCT-116 colon
HCT-15 colon = test system: HCT-15 colon
HL-60(TB) leukemia = test system: HL-60(TB) leukemia
HOP-62 NSCLC = test system: HOP-62 NSCLC
HOP-92 NSCLC = test system: HOP-92 NSCLC
HS 578T breast = test system: HS 578T breast
HT29 colon = test system: HT29 colon
IGROV1 ovarian = test system: IGROV1 ovarian
K-562 leukemia = test system: K-562 leukemia
KM12 colon = test system: KM12 colon
LOX IMVI melanoma = test system: LOX IMVI melanoma
M14 melanoma = test system: M14 melanoma
MALME-3M melanoma = test system: MALME-3M melanoma
MCF7 breast = test system: MCF7 breast
MDA-MB-231 breast = test system: MDA-MB-231 breast
MOLT-4 leukemia = test system: MOLT-4 leukemia
NCI-H226 lung = test system: NCI-H226 lung
NCI-H23 lung = test system: NCI-H23 lung
NCI-H460 lung = test system: NCI-H460 lung
NCI-H522 lung = test system: NCI-H522 lung
NCI/ADR-RES ovarian = test system: NCI/ADR-RES ovarian
OVCAR-3 ovarian = test system: OVCAR-3 ovarian
OVCAR-4 ovarian = test system: OVCAR-4 ovarian
OVCAR-5 ovarian = test system: OVCAR-5 ovarian
OVCAR-8 ovarian = test system: OVCAR-8 ovarian
PC-3 prostate = test system: PC-3 prostate
RPMI-8226 leukemia = test system: RPMI-8226 leukemia
RXF 393 renal = test system: RXF 393 renal
SF-268 CNS = test system: SF-268 CNS
SF-295 CNS = test system: SF-295 CNS
SF-539 CNS = test system: SF-539 CNS
SK-MEL-2 melanoma = test system: SK-MEL-2 melanoma
SK-MEL-28 melanoma = test system: SK-MEL-28 melanoma
SK-MEL-5 melanoma = test system: SK-MEL-5 melanoma
SK-OV-3 ovarian = test system: SK-OV-3 ovarian
SN12C renal = test system: SN12C renal
SNB-19 CNS = test system: SNB-19 CNS
SNB-75 CNS = test system: SNB-75 CNS
SR leukemia = test system: SR leukemia
SW-620 colon = test system: SW-620 colon
T-47D breast = test system: T-47D breast
TK-10 renal = test system: TK-10 renal
U251 CNS = test system: U251 CNS
UACC-257 melanoma = test system: UACC-257 melanoma
UACC-62 melanoma = test system: UACC-62 melanoma
UO-31 renal = test system: UO-31 renal

SMILES: O=C(N/N=C/c1ccco1)c1[nH]c2ccc(Br)cc2c1-c1ccccc1
- GI50 (786-0 renal): 411 nM
- TGI (786-0 renal): 12600 nM
- GI50 (A498 renal): 8760 nM
- TGI (A498 renal): 25400 nM
- GI50 (A549 NSCLC): 191 nM
- TGI (A549 NSCLC): 14300 nM
- GI50 (ACHN renal): 303 nM
- TGI (ACHN renal): 14700 nM
- GI50 (BT-549 breast): 220 nM
- TGI (BT-549 breast): 1190 nM
- GI50 (CAKI-1 renal): 251 nM
- TGI (CAKI-1 renal): 16500 nM
- GI50 (CCRF-CEM leukemia): 238 nM
- TGI (CCRF-CEM leukemia): 27100 nM
- GI50 (COLO 205 colon): 226 nM
- TGI (COLO 205 colon): 695 nM
- GI50 (DU-145 prostate): 309 nM
- TGI (DU-145 prostate): 12000 nM
- GI50 (EKVX NSCLC): 1300 nM
- TGI (EKVX NSCLC): 27300 nM
- GI50 (HCC-2998 colon): 240 nM
- TGI (HCC-2998 colon): 9410 nM
- GI50 (HCT-116 colon): 106 nM
- TGI (HCT-116 colon): 10700 nM
- GI50 (HCT-15 colon): 85.9 nM
- TGI (HCT-15 colon): 11800 nM
- GI50 (HL-60(TB) leukemia): 135 nM
- TGI (HL-60(TB) leukemia): 503 nM
- GI50 (HOP-62 NSCLC): 326 nM
- TGI (HOP-62 NSCLC): 15400 nM
- GI50 (HOP-92 NSCLC): 763 nM
- TGI (HOP-92 NSCLC): 13200 nM
- GI50 (HS 578T breast): 234 nM
- TGI (HS 578T breast): 29500 nM
- GI50 (HT29 colon): 143 nM
- TGI (HT29 colon): 1230 nM
- GI50 (IGROV1 ovarian): 212 nM
- TGI (IGROV1 ovarian): 12800 nM
- GI50 (K-562 leukemia): 48.5 nM
- TGI (K-562 leukemia): 11900 nM
- GI50 (KM12 colon): 281 nM
- TGI (KM12 colon): 12700 nM
- GI50 (LOX IMVI melanoma): 89.9 nM
- TGI (LOX IMVI melanoma): 11700 nM
- GI50 (M14 melanoma): 165 nM
- TGI (M14 melanoma): 21900 nM
- GI50 (MALME-3M melanoma): 211 nM
- TGI (MALME-3M melanoma): 21300 nM
- GI50 (MCF7 breast): 67.3 nM
- TGI (MCF7 breast): 11100 nM
- GI50 (MDA-MB-231 breast): 292 nM
- TGI (MDA-MB-231 breast): 2970 nM
- GI50 (MOLT-4 leukemia): 265 nM
- TGI (MOLT-4 leukemia): 11700 nM
- GI50 (NCI-H226 lung): 327 nM
- TGI (NCI-H226 lung): 10400 nM
- GI50 (NCI-H23 lung): 403 nM
- TGI (NCI-H23 lung): 14200 nM
- GI50 (NCI-H460 lung): 147 nM
- TGI (NCI-H460 lung): 1700 nM
- GI50 (NCI-H522 lung): 42.5 nM
- TGI (NCI-H522 lung): 225 nM
- GI50 (NCI/ADR-RES ovarian): 187 nM
- TGI (NCI/ADR-RES ovarian): 2800 nM
- GI50 (OVCAR-3 ovarian): 281 nM
- TGI (OVCAR-3 ovarian): 14900 nM
- GI50 (OVCAR-4 ovarian): 988 nM
- TGI (OVCAR-4 ovarian): 26200 nM
- GI50 (OVCAR-5 ovarian): 320 nM
- TGI (OVCAR-5 ovarian): 17600 nM
- GI50 (OVCAR-8 ovarian): 162 nM
- TGI (OVCAR-8 ovarian): 3230 nM
- GI50 (PC-3 prostate): 309 nM
- TGI (PC-3 prostate): 15900 nM
- GI50 (RPMI-8226 leukemia): 200 nM
- TGI (RPMI-8226 leukemia): > 26900 nM
- GI50 (RXF 393 renal): 348 nM
- TGI (RXF 393 renal): 16900 nM
- GI50 (SF-268 CNS): 975 nM
- TGI (SF-268 CNS): 27900 nM
- GI50 (SF-295 CNS): 46.4 nM
- TGI (SF-295 CNS): 11100 nM
- GI50 (SF-539 CNS): 91 nM
- TGI (SF-539 CNS): 482 nM
- GI50 (SK-MEL-2 melanoma): 302 nM
- TGI (SK-MEL-2 melanoma): 22400 nM
- GI50 (SK-MEL-28 melanoma): 735 nM
- TGI (SK-MEL-28 melanoma): 21100 nM
- GI50 (SK-MEL-5 melanoma): 133 nM
- TGI (SK-MEL-5 melanoma): 644 nM
- GI50 (SK-OV-3 ovarian): 403 nM
- TGI (SK-OV-3 ovarian): 16900 nM
- GI50 (SN12C renal): 201 nM
- TGI (SN12C renal): 4530 nM
- GI50 (SNB-19 CNS): 252 nM
- TGI (SNB-19 CNS): 14700 nM
- GI50 (SNB-75 CNS): 177 nM
- TGI (SNB-75 CNS): 5770 nM
- GI50 (SR leukemia): 52.7 nM
- TGI (SR leukemia): 5100 nM
- GI50 (SW-620 colon): 105 nM
- TGI (SW-620 colon): 17300 nM
- GI50 (T-47D breast): 1410 nM
- TGI (T-47D breast): 26900 nM
- GI50 (TK-10 renal): 1610 nM
- TGI (TK-10 renal): 18000 nM
- GI50 (U251 CNS): 192 nM
- TGI (U251 CNS): 11800 nM
- GI50 (UACC-257 melanoma): 437 nM
- TGI (UACC-257 melanoma): 17300 nM
- GI50 (UACC-62 melanoma): 72.4 nM
- TGI (UACC-62 melanoma): 13600 nM
- GI50 (UO-31 renal): 267 nM
- TGI (UO-31 renal): 15400 nM
